In US6743895B1, “Bone stimulating factor” (Osteopharm Inc., priority 1995, dated 2004):
Blank lines part the entries; values can stand above or below the compound they belong to. Residues, ends and D or L forms follow the SMILES beside them. No end group written: not given here.

Columns and labels:
ovariectomized rats [1] = experiment: Full autopsy after four week administration to ovariectomized rats; type: in vivo, Sprague-Dawley rats; settings: 100 μg s.c. every 24 hours for 28 days
Procedure: The six ovariectomized rats were injected subcutaneously with 100 μl of a 0.1% acetic acid solution containing 100 μg of the chemically synthesized peptide (SEQ ID NO:1) every 24 hours for 28 days. On day 25, a tetracycline hydrochloride solution was injected intramuscularly into each rat so as to give 24 mg per Kg of body weight, as described previously. On day 27, a second dose of tetracycline hydrochloride was injected and the rats were sacrificed on the 28th day.
Post-mortem blood was taken by cardiac puncture and serum frozen until analyzed. A full autopsy was performed on each rat.

[2] = tested on: parathyroidectomized rats; experiment: Histological evaluation of selected tissues (toxicity experiments); type: in vivo, rat; settings: miniosmotic pump, about 25 μg per day
Procedure: A miniosmotic pump (Alzet) was loaded with about 1.5 ml of the chemically synthesized peptide having an N-terminal acetyl group (SEQ ID NO:2) in 0.1% acetic acid so as to give a calculated daily delivery of about 25 μg per day. A pump was implanted under the subcutaneous fascia of the dorsal aspect of the left side of the thorax of five rats which had been parathyroldectomized seven days earlier. Five similarly parathyroldectomized rats received similar implants containing only 0.1% acetic acid. Five intact rats were also used as controls.
Histological evaluation of selected tissues of the five rats of each of the groups indicated in Table One were carried out microscopically.

ovariectomized rats [3] = experiment: Autopsy after eight week administration to ovariectomized rats; type: in vivo, rat; settings: 100 μg s.c. every 24 hours for eight weeks
Procedure: Eight weeks after ovariectomization, five ovariectomized rats were injected subcutaneously with 100 μl of a 0.1% acetic acid solution containing 100 μg of the chemically synthesized peptide in which the N-terminal amino group was modified with an acetyl group (SEQ ID NO:2). This was done every 24 hours for eight weeks. On day 54, a tetracycline hydrochloride solution was injected intramuscularly into the right gluteus maximus of each rat so as to give 24 mg per Kg of body weight, as described previously. On day 56, a second dose of tetracycline hydrochloride was injected and the rats were sacrificed on the 57th day.
Post-mortem blood was taken by cardiac puncture and serum frozen until analyzed. An autopsy was performed on each rat.

rats = experiment: Bone mineral apposition rate in intact rats after subcutaneous injection of polypeptide, tetracycline labelling; type: in vivo, Sprague-Dawley rats
Procedure: Experiments were carried out on three groups of six rats weighing between 295 and 320 g. A 1 mg per ml solution of the modified peptide (SEQ ID NO:3) was prepared in 0.1% acetic acid. A 1 mg per ml solution of the normal peptide (SEQ ID NO:1) was prepared in 0.1% acetic acid. Each rat of a first of the groups had subcutaneously injected into its right thigh 0.1 ml of the modified peptide solution. Similarly, each rat of the second group was injected with 0.1 ml of the normal peptide solution. Each rat of the third group, the control group, was injected with 0.1 ml of 0.1% acetic acid solution. Immediately following these injections, each rat was injected intramuscularly with 24 mg per Kg body weight of tetracycline hydrochloride dissolved in 0.5 ml of water. A second dose of tetracycline hydrochloride was administered 48 hours later. The animals were sacrificed 24 hours after the second dose by CO2 narcosis. The lower metaphysis of the right femur was dissected out and fixed in a 10% aqueous solution of formaldehyde buffered at pH 7.2 by acetate buffer. Bone sections were prepared for measurement as described above.
Sprague-Dawley rats were used as test animals to determine bone mineral apposition rate, as described above. Male rats having weights between 280 and 380 g were subject to subcutaneous injection after one week of acclimatization. Each animal was injected with 200 μl of a 0.1% acetic acid test solution, solutions having been prepared at concentrations to obtain a dosage of about 25 nmol of polypeptide per animal. Each test dose was immediately followed by intramuscular injection of 24 mg per Kg of body weight of tetracycline hydrochloride. A second injection of tetracycline was made 48 hours later.
Bone mineral apposition rates were determined by measurements of the lower metaphysis of the right femur, as described previously. Results obtained in the two sets of experiments are summarized in Tables Seven and Eight and graphically depicted in FIGS. 8 and 9.
Bone mineral apposition rates were again determined by measurement of the lower metaphysis of the right femur. Results obtained are summarized in Table Nineteen and graphically depicted in FIG. 12. […]
In a final set of experiments, a polypeptide having the ninth amino acid, cysteine, replaced by the amino acid tyrosine, SEQ ID NO:43, was synthesized and tested for bone stimulatory activity. Four rats (about 300 grams) were each administered with 100 nmoles of material (in 400 μl 20 mM acetic acid solution) by subcutaneous injection along with tetracycline (5 mg per animal in 400 μl water), as described above. A second dosage of tetracycline was administered 48 hours later and the animals sacrificed 24 hours after that. The lower metaphysis of the right femur was examined to determine the bone mineral apposition rate. For comparison, experiments were performed using a control in which no compound was present in the acetic acid solution.

ovariectomized rats [4] = experiment: Bone mineral (calcium) content by DEXA in ovariectomized rats; type: in vivo, rat; settings: 25 nmoles s.c. each day
Procedure: Ovariectomies were performed on rats as described above. A 0.1% acetic acid solution containing 25 nmoles of the polypeptide was administered subcutaneously to each rat each day for the duration of the experiment. […] Another group of rats was treated for eight weeks beginning eight weeks after ovariectomization. Rats were sacrificed at the end of the treatment period and dissected and post mortem assessment of bone mineral content was carried out. The lumbar spines L1-L4 were cleaned with a power nylon brush to remove the attached muscle. They were placed ventral side down under 3 cm of distilled water in a polypropylene container and scanned by a dual energy x-ray absorptometer (DEXA). Hologic 100, to determine the calcium content in grams. The right femur of each rat was also dissected out intact and cleared of the attached muscles with a power nylon brush. It was scanned dorsal side down under 3 cm of distilled water by DEXA. Four regions of the femur were scanned, as indicated in FIGS. 10 and 11: A, proximal end; B, diaphysis; C, distal end; and D, neck. The bone mineral (i.e., calcium) content in grams was estimated in the four zones of the femur based on absorption and using an internal standard of the machine.

[5] = Stability of dissolved polypeptides (capillary electrophoresis, RP-HPLC); type: physicochemical; settings: 37° C.
Procedure: Each of the polypeptides having the sequences identified as SEQ ID NO: 7 and 24 was dissolved in 5 mM acetic acid to a final concentration of 1 mg/ml and incubated at 37° C. The peptide compositions were analyzed weekly by capillary electrophoresis on a P/ACE 6000 system (Beckman) using 50 mM sodium phosphate pH 2.5 as the running buffer on a 57 cm long×75 μm internal diameter capillary. The incubated peptide (20 μl) was diluted with 80 μl of running buffer, placed in a 500 μl vial prior to injection onto the P/ACE using pressure for 20 seconds. Following electrophoresis of the incubated peptide at 30 kV for 15 min a second run was carried out using freshly dissolved peptide as a control.
Each of the polypeptides was dissolved in 20 mM sodium phosphate pH 3.0, 20 mM ammonium acetate pH 4.0, 20 mM ammonium acetate pH 5.0, 20 mM MES pH 6.0, 20 mM sodium phosphate pH 7.0, 20 mM sodium phosphate pH 7.5, 20 mM sodium phosphate pH 8.0, 20 mM ammonium acetate pH 8.5 or 20 mM ammonium acetate pH 9.5 to a final concentration of 1 mg/ml. The peptide was incubated at 37° C. and the peptide assayed weekly by separation on P/ACE as described above. Some samples were separated by RP-HPLC and the isolated peaks subjected to mass spectroscopic analysis.
The protected polypeptide identified as SEQ ID NO:24 was dissolved in 20 mM or 250 mM ammonium acetate pH 4.5 to a final concentration of 1 mg/ml. In some experiments the buffer was supplemented with 20 mM EDTA. The peptide solution was then incubated at −70° C., −20° C., 4° C. or room temperature (22° C.). Samples were assayed weekly by electrophoresis on the P/ACE as described above and/or by RP-HPLC.
The stability of each of the polypeptides having the amino acid sequences identified as SEQ ID NOs: 25, 26 and 27 was tested as described above.

Full autopsy findings (ovariectomized rats [1]): No ill effects were observed
Compound: CC[C@H](C)[C@H](NC(=O)CN)C(=O)NCC(=O)N[C@@H](CCCCN)C(=O)N[C@@H](CCCNC(=N)N)C(=O)N[C@H](C(=O)N[C@@H](CC(N)=O)C(=O)N[C@@H](CCC(=O)O)C(=O)N[C@@H](Cc1c[nH]cn1)C(=O)N[C@H](C(=O)N[C@@H](C)C(=O)N[C@@H](CC(=O)O)C(=O)N[C@@H](CS)C(=O)N[C@@H](CCCCN)C(=O)N[C@H](C(=O)N[C@@H](CCCCN)C(=O)N1CCC[C@H]1C(=O)N[C@@H](CC(N)=O)C(=O)N[C@H](C(=O)N[C@@H](CC(C)C)C(=O)N[C@@H](Cc1c[nH]cn1)C(=O)N[C@@H](CCCCN)C(=O)N[C@@H](CCCCN)C(=O)N[C@@H](C)C(=O)N[C@@H](C)C(=O)N[C@@H](CCC(=O)O)C(=O)N[C@H](C(=O)N[C@@H](CC(C)C)C(=O)N[C@@H](CCSC)C(=O)N[C@H](C(=O)N[C@@H](CC(C)C)C(=O)N[C@@H](CC(=O)O)C(=O)N[C@@H](CCC(N)=O)C(=O)N[C@@H](CC(N)=O)C(=O)N[C@@H](CCC(N)=O)C(=O)N1CCC[C@H]1C(=O)O)C(C)C)[C@@H](C)O)[C@@H](C)O)[C@@H](C)CC)[C@@H](C)O)[C@@H](C)O [SEQ ID NO:1] (H-GIGKRTNEHTADCKIKPNTLHKKAAETLMVLDQNQP-OH)

Autopsy findings (ovariectomized rats [3]): No obvious pathology was observed
Compound: CC[C@H](C)[C@H](NC(=O)CNC(C)=O)C(=O)NCC(=O)N[C@@H](CCCCN)C(=O)N[C@@H](CCCNC(=N)N)C(=O)N[C@H](C(=O)N[C@@H](CC(N)=O)C(=O)N[C@@H](CCC(=O)O)C(=O)N[C@@H](Cc1c[nH]cn1)C(=O)N[C@H](C(=O)N[C@@H](C)C(=O)N[C@@H](CC(=O)O)C(=O)N[C@@H](CS)C(=O)N[C@@H](CCCCN)C(=O)N[C@H](C(=O)N[C@@H](CCCCN)C(=O)N1CCC[C@H]1C(=O)N[C@@H](CC(N)=O)C(=O)N[C@H](C(=O)N[C@@H](CC(C)C)C(=O)N[C@@H](Cc1c[nH]cn1)C(=O)N[C@@H](CCCCN)C(=O)N[C@@H](CCCCN)C(=O)N[C@@H](C)C(=O)N[C@@H](C)C(=O)N[C@@H](CCC(=O)O)C(=O)N[C@H](C(=O)N[C@@H](CC(C)C)C(=O)N[C@@H](CCSC)C(=O)N[C@H](C(=O)N[C@@H](CC(C)C)C(=O)N[C@@H](CC(=O)O)C(=O)N[C@@H](CCC(N)=O)C(=O)N[C@@H](CC(N)=O)C(=O)N[C@@H](CCC(N)=O)C(=O)N1CCC[C@H]1C(=O)O)C(C)C)[C@@H](C)O)[C@@H](C)O)[C@@H](C)CC)[C@@H](C)O)[C@@H](C)O [SEQ ID NO:2] (Ac-GIGKRTNEHTADCKIKPNTLHKKAAETLMVLDQNQP-OH)
Histological evaluation of selected tissues [2]: No evidence of toxic lesions

Compound: GIGKRTNEHTADCKI [SEQ ID NO:7]
Mean Bone Apposition Rate (rats; about 125 nmoles of polypeptide per Kg of body weight (Table Twenty)): 2.18 μm/day | Bone mineral apposition rate, Mean (rats; male Sprague-Dawley rats 280-380 g, about 25 nmol per animal s.c., first set (Table Seven)): 1.41 μm per day | Bone Mineral Content Measured in Distal End of Femur, Mean (ovariectomized rats [4]; Administered over 56 Days): 0.1347 g | Bone Mineral Content Measured in Femoral Diaphysis, Mean (ovariectomized rats [4]; Administered over 56 Days): 0.2091 g | Bone Mineral Content Measured in Femoral Neck, Mean (ovariectomized rats [4]; Administered over 56 Days): 0.0274 g | Bone Mineral Content Measured in Proximal End of Femur, Mean (ovariectomized rats [4]; Administered over 56 Days): 0.1328 g | Bone Mineral Content Measured in Spine L1-L4, Mean (ovariectomized rats [4]; Administered over 56 Days): 0.4606 g | Bone Mineral Content Measured in Distant End of Femur, Mean (ovariectomized rats [4]; Administered over 100 Days): 0.1424 g | Bone Mineral Content Measured in Femoral Diaphysis, Mean (ovariectomized rats [4]; Administered over 100 Days): 0.2347 g | Bone Mineral Content Measured in Femoral Neck, Mean (ovariectomized rats [4]; Administered over 100 Days): 0.0351 g | Bone Mineral Content Measured in Proximal End of Femur, Mean (ovariectomized rats [4]; Administered over 100 Days): 0.1411 g | Bone Mineral Content Measured in Spine L1-L4, Mean (ovariectomized rats [4]; Administered over 100 Days): 0.4758 g | Stability when dissolved in dilute acids ([5]; 5 mM acetic acid, 1 mg/ml, analyzed weekly by capillary electrophoresis): degraded overtime | pH at which the peptide was most stable ([5]; 20 mM buffers pH 3.0 to 9.5, 1 mg/ml): 4.5
